Measured values reported in patent EP0180581B2, “DRUG PREPARATIONS OF REDUCED TOXICITY” (THE LIPOSOME COMPANY, INC., priority 1984, dated 1985).
Where two headings read alike, the source gives them in different places.

Tests used:
[1] = in vitro; cited from earlier work
[2] = system: L cells; experiment: Cloning efficiency of L cells; format: cell-based
Experimental: Plastic petri dishes (35 mm diameter) were seeded with 50 L-cells per dish in 2 m| MEM plus 10% fetal calf serum containing one of the amphotericin B preparations (2 dishes per amphotericin B preparation). The dishes were incubated for 10 days and the cloned cultures were stained with crystal violet as described above.

[3] = system: erythrocytes; experiment: Hemolytic effect on erythrocytes (released hemoglobin); format: cell-based
[4] = system: C. albicans; experiment: Minimum inhibitory concentration for C. albicans; format: cell-based; conditions: 50% growth inhibition, overnight at 35° C
Experimental: The minimum inhibitory concentration (M.I.C.) of the amphotericin B preparations for C. albicans was determined as follows: each of the 5 preparations was serially diluted in a 96 round-bottomed well plate, using 1/2 step dilutions of drug in 50 »| Mico-broth per well and 3 wells for each dilution step. After dilutions were completed, each well received 50 »| broth containing 10³ cells of C. albicans. Plates were incubated overnight at 35° C in a humidified atmosphere.

[5] = system: L-cells; experiment: Cytotoxicity for L-cells (50% growth inhibition); conditions: 72 hours at 37°C
[6] = system: Swiss Webster mice; experiment: LD50 of aminoglycoside antibiotics with and without phosphorylcholine, subcutaneous; format: in vivo; conditions: mg aminoglycoside antibiotic per kg body weight, survivors after 24 hours
Experimental: (§1) In order to determine the LD₅₀ of the aminoglycoside preparations a quantity of antibiotic was dissolved in 20 m| distilled water with or without phosphorylcholine to achieve a final 1:3 molar ratio of antibiotic to ligand. Then, 0.6 m| aliquots of serial dilutions of the aminoglycoside preparations were injected subcutaneously into Swiss Webster mice (ten animals per group, average weight 23 g each). After 24 hours the number of survivors in each group was determined and the LD₅₀ and 95% confidence limits for each were computed according to the Spearman-Karber Method for Quantal Data (from Finney, 1952, Statistical Method in Biological Assay, Hafner Pub. Co., New York).

[7] = system: Swiss Webster mice; experiment: Toxicity (lethality) of streptomycin administered with and without ligand, subcutaneous; format: in vivo; conditions: streptomycin 1000 mg/kg subcutaneously, ligand 1:3 molar ratio, mixed immediately prior to administration
[8] = system: patients; conditions: cited from earlier work
[9] = LD50 of aminoglycoside antibiotics with and without phosphorylcholine, subcutaneous; format: in vivo; conditions: mouse, in vivo, sc, mg aminoglycoside antibiotic per kg body weight, Swiss Webster mice, survivors after 24 hours, read-out: LD₅₀
Experimental: as §1

[10] = system: mice; experiment: Acute toxicity of streptomycin-ligand preparations, subcutaneous (Table II); format: in vivo; conditions: for effectiveness in reducing the toxicity of streptomycin: ligand mixed with streptomycin (1:3 or 1:1 molar ratio), 1000 mg streptomycin per kg subcutaneously in mice
[11] = system: L-cells; conditions: mouse, 72 h
[12] = system: male Swiss-Webster mice; conditions: mouse, in vivo, iv, 400 mg/kg
Experimental: Six male Swiss-Webster mice weighing 27 gms each were given a single intravenous injection of 400 mg/kg PEG-cholesterol.

[13] = AmB preparations at 25 @g amphotericin B/m| medium, 10 days

In the case of `C[C@@H]1[C@H](O)[C@@H](C)/C=C/C=C/C=C/C=C/C=C/C=C/C=C/[C@H](O[C@@H]2O[C@H](C)[C@@H](O)[C@H](N)[C@@H]2O)C[C@@H]2O[C@](O)(C[C@@H](O)C[C@@H](O)[C@H](O)CC[C@@H](O)C[C@@H](O)CC(=O)O[C@H]1C)C[C@H](O)[C@H]2C(=O)O` [amphotericin B], the “affinity for ergosterol compared to cholesterol” value [1] is listed as “approximately ten times greater affinity”.
With deoxycholate [DOC] the “Number of Clones, % of Control” value [2, 13] was 70.8%, the “Number of Clones, Number of Colonies” value [2, 13] was 68 and the “Size of Colonies, % of Control” value [2, 13] was 92%. For the same compound, the “Size of Colonies, Mean Diameter” value [2, 13] was 2.3, the OD550nm ([3]; concentration 1 @g/m|, 2% erythrocytes, 37°C, 20 hours) was 0.03 and the OD550nm ([3]; concentration 2 @g/m|, 2% erythrocytes, 37°C, 20 hours) was 0.03. The OD550nm ([3]; concentration 2.5 @g/m|, 2% erythrocytes, 37°C, 20 hours) was 0.03, the OD550nm ([3]; concentration 15 @g/m|, 2% erythrocytes, 37°C, 20 hours) was 0.03 and the OD550nm ([3]; concentration 30 @g/m|, 2% erythrocytes, 37°C, 20 hours) was 0.03. The OD550nm ([3]; concentration 60 @g/m|, 2% erythrocytes, 37°C, 20 hours) was 0.06, the OD550nm ([3]; concentration 125 @g/m|, 2% erythrocytes, 37°C, 20 hours) was 0.23 and the OD550nm ([3]; concentration 250 @g/m|, 2% erythrocytes, 37°C, 20 hours) was 0.47. The “Minimum Inhibitory Concentration of Amphotericin B, C. albicans” value [4] was 5,000+ @g/m| and the “Minimum Inhibitory Concentration of Amphotericin B, L cells” value [5] was 250.0 @g/m|.
Neomycin showed an LD₅₀ [6] of 371 mg/kg.
In the case of `[H]/N=C(/N)N[C@H]1[C@H](O)[C@@H](O)[C@H](O[C@@H]2O[C@@H](C)[C@](O)(C=O)[C@H]2O[C@@H]2O[C@@H](CO)[C@H](O)[C@@H](O)[C@@H]2NC)[C@@H](N/C(N)=N\[H])[C@@H]1O` [Streptomycin, streptomycin], the “Lethality No. Dead/No. Inoculated” value [7] is listed as 7/8, the “Percent Lethality” value [7] is listed as 87.5% and the “patients manifesting some vestibular disturbance” value ([8]; 2g daily for 60 to 120 days) is listed as ~75%. The “incidence of vestibular disturbance” value ([8]; dose reduced to 1g daily) was 25% and the LD50 at 24 h [9] was 741 mg/kg.
In the case of `NCCOP(=O)(O)O` [phosphorylethanolamine], the “effectiveness in reducing aminoglycoside toxicity” value ([10]; general statement on ligands) was “less effective”.
For egg lysophosphatidylcholine, the “effectiveness in reducing aminoglycoside toxicity” value ([10]; mouse, in vivo) was “very effective in reducing aminoglycoside toxicity”.
For Gentamycin, the LD₅₀ [6] was 692 mg/kg.
With `O=P(O)(O)O[C@H]1[C@H](OP(=O)(O)O)[C@@H](OP(=O)(O)O)[C@H](OP(=O)(O)O)[C@@H](OP(=O)(O)O)[C@H]1OP(=O)(O)O` [inositol hexaphosphate] the “effectiveness in reducing the toxicity of streptomycin” value [10] was “very effective in reducing the toxicity of streptomycin”.
For “polyethylene glycol-cholesterol [PEG-Chol]”, the “Number of Clones, Number of Colonies” value [2] was 83, the “Size of Colonies, Mean Diameter” value [2] was 2.5 and the “Number of Clones, % of Control” value ([2]; mouse, l cells, 240 h) was 86.5%. The “Size of Colonies, % of Control” value ([2]; mouse, l cells, 240 h) was 100%, the OD550nm [3] was 0.03 and the “Minimum Inhibitory Concentration of Amphotericin B, C. albicans” value [4] was 25,000+ @g/m|. The “Minimum Inhibitory Concentration of Amphotericin B, L cells” value [11] was 500.0+ @g/m| and the “overt signs of toxicity” value [12] was “No overt signs of toxicity”.
In the case of `C[N+](C)(C)CCOP(=O)([O-])OC[C@H](O)CO` [glycerolphosphorylcholine], the “effectiveness in reducing aminoglycoside toxicity” value ([10]; general statement on ligands) was “less effective”.
For `C[N+](C)(C)CCOP(=O)(O)O` [phosphorylcholine], the “effectiveness in reducing aminoglycoside toxicity” value ([10]; general statement on ligands) was “very effective in reducing aminoglycoside toxicity” and the “effectiveness in reducing the toxicity of streptomycin” value [10] was “very effective in reducing the toxicity of streptomycin”.
